In ChEMBL document CHEMBL3045636, “Synthesis, characterization, in vitro anticancer activity, and docking of Schiff bases of 4-amino-1,2-naphthoquinone” (Med Chem Res, 2013):
Activity calls are given as the source filed them. No cut-off for these calls is given here.

Assays:
Format in all cases: functional, cell-based
MG-63 [1] = test: Cytotoxicity against Homo sapiens (human) MG63 cells assessed as reduction of cell survival after 48 hr by MTT assay; conditions: MG-63, 48 h
HepG2 [2] = test: Cytotoxicity against Homo sapiens (human) HepG2 cells assessed as reduction of cell survival after 48 hr by MTT assay; conditions: HepG2, 48 h
MCF7 [3] = test: Cytotoxicity against Homo sapiens (human) MCF7 cells assessed as reduction of cell survival after 48 hr by MTT assay; conditions: MCF7, 48 h
MCF7 [4] = test: Cytotoxicity against Homo sapiens (human) MCF7 cells assessed as morphological changes at 10 uM after 48 hr by phase contrast microscopic analysis relative to untreated control
HepG2 [5] = test: Cytotoxicity against Homo sapiens (human) HepG2 cells assessed as morphological changes at 10 uM after 48 hr by phase contrast microscopic analysis relative to untreated control
MG-63 [6] = test: Cytotoxicity against Homo sapiens (human) MG63 cells assessed as morphological changes at 10 uM after 48 hr by phase contrast microscopic analysis relative to untreated control

SMILES	IC50 (MG-63 [1])	IC50 (HepG2 [2])	IC50 (MCF7 [3])	Activity (MCF7 [4])	Activity (HepG2 [5])	Activity (MG-63 [6])
O=C1C=C(/N=C\c2ccccc2Cl)c2ccccc2C1=O	17.1 µM	12.1 µM	14.3 µM	–	–	–
O=C1C=C(/N=C\c2ccccc2[N+](=O)[O-])c2ccccc2C1=O	17 µM	11.8 µM	14.4 µM	–	–	–
O=C1C=C(/N=C\c2ccc(Cl)cc2Cl)c2ccccc2C1=O	24.3 µM	15.7 µM	14.7 µM	–	–	–
O=C1C=C(/N=C\c2ccc(O)cc2)c2ccccc2C1=O	13.6 µM	8.92 µM	11.1 µM	–	–	–
O=C1C=C(/N=C\c2ccc([N+](=O)[O-])cc2)c2ccccc2C1=O	25 µM	15.6 µM	14.7 µM	–	–	–
CN(C)c1ccc(/C=N\C2=CC(=O)C(=O)c3ccccc32)cc1	12.9 µM	7.72 µM	10.6 µM	–	–	–
O=C1C=C(N=C2CCCCC2)c2ccccc2C1=O	11.5 µM	7.37 µM	9.3 µM	–	–	–
O=C1C=C(/N=C\c2c[nH]c3ccccc23)c2ccccc2C1=O	13.8 µM	10.1 µM	11.3 µM	–	–	–
O=C1C=C(/N=C\c2ccccc2O)c2ccccc2C1=O	16.1 µM	11 µM	13.2 µM	–	–	–
COc1cc(/C=N\C2=CC(=O)C(=O)c3ccccc32)cc(OC)c1OC	9.69 µM	5.91 µM	7.65 µM	Active	Active	Active
COc1ccc(/C=N\C2=CC(=O)C(=O)c3ccccc32)cc1OC	13.3 µM	9.15 µM	10.9 µM	–	–	–
O=C1C=C(N=C2CCCC2)c2ccccc2C1=O	11.9 µM	7.77 µM	9.64 µM	–	–	–
COc1cc(/C=N\C2=CC(=O)C(=O)c3ccccc32)ccc1O	9.98 µM	6.37 µM	8.24 µM	–	–	–
O=C1C=C(/N=C\C=C\c2ccccc2)c2ccccc2C1=O	14.8 µM	10.6 µM	12.9 µM	–	–	–
COc1cccc2c1C(=O)c1c(O)c3c(c(O)c1C2=O)C[C@@](O)(C(=O)CO)C[C@@H]3O[C@H]1C[C@H](N)[C@H](O)[C@H](C)O1 [DOXORUBICIN]	3.17 µM	1.69 µM	2.67 µM	–	–	–
O=C1C=C(/N=C\c2ccccc2)c2ccccc2C1=O	16.2 µM	11.5 µM	13.8 µM	–	–	–
COc1ccc(/C=N\C2=CC(=O)C(=O)c3ccccc32)cc1	12.7 µM	9.03 µM	11.2 µM	–	–	–
O=C1C=CC(=O)c2ccccc21 [NAPHTHOQUINONE]	> 25 µM	15.9 µM	16.9 µM	–	–	–
Cc1ccc(/C=N\C2=CC(=O)C(=O)c3ccccc32)cc1	15.1 µM	10.4 µM	12.6 µM	–	–	–
NC1=CC(=O)C(=O)c2ccccc21 [4-AMINO-[1,2]NAPHTHOQUINONE]	24.6 µM	15.7 µM	14.8 µM	–	–	–
O=C1C=C(/N=C\c2cccc(Br)c2)c2ccccc2C1=O	17.3 µM	12.2 µM	14.6 µM	–	–	–
